Consider 14 molecules from ChEMBL document CHEMBL2375345, “New antiprotozoal agents: their synthesis and biological evaluations” (Bioorg Med Chem Lett, 2013).

Series [1] is described as follows: Selectivity index, ratio of CC50 for human MRC5 cells to IC50 for amastigote form of Leishmania infantum MHOM/MA(BE)/67. It is filed as functional.
Series [2] can be described thus: Selectivity index, ratio of CC50 for human MRC5 cells to IC50 for trypomastigote form of Trypanosoma brucei brucei 427. It counts as functional.
The subject of series [3] is Trypanosoma brucei rhodesiense. The experiment in a line: Antiprotozoal activity against trypomastigote form of Trypanosoma brucei rhodesiense STIB900 assessed as parasite growth inhibition after 72 hrs by Alamar blue assay. The settings on record: STIB900, 72 h. It is filed as functional, organism-based.
Series [4] deals with Trypanosoma cruzi. The experiment in a line: Antiprotozoal activity against epimastigote form of Trypanosoma cruzi Tulahuen 2 assessed as parasite growth inhibition measured at day 5. It is filed as functional, organism-based. The settings on record: Tulahuen 2, 120 h.
Series [5] can be described thus: Selectivity index, ratio of CC50 for human MRC5 cells to IC50 for epimastigote form of Trypanosoma cruzi Tulahuen 2. It counts as functional.
The test system of series [6] is Leishmania infantum. The experiment in a line: Antiprotozoal activity against amastigote form of Leishmania infantum MHOM/MA(BE)/67 infected in mouse peritoneal macrophages assessed as reduction of intracellular parasite burden after 5 days by Giemsa staining method. It is filed as functional, organism-based. The settings on record: MHOM/MA(BE)/67, 120 h.
A short description of series [7]: Cytotoxicity against human MRC5 cells assessed as cell viability after 7 days by Alamar blue assay. It is filed as cell-based.
Series [8] in a line: Selectivity index, ratio of CC50 for human MRC5 cells to IC50 for trypomastigote form of Trypanosoma brucei rhodesiense STIB900. It counts as functional.
Series [9] in a line: Lipophilicity, log P of the compound. The conditions noted are these: octanol/water. It is filed as physicochemical.
Series [10] concerns Trypanosoma brucei brucei. The experiment in a line: Antiprotozoal activity against trypomastigote form of Trypanosoma brucei brucei 427 assessed as parasite growth inhibition. It counts as functional, organism-based.
The nature of series [11]: Cytotoxicity against mouse peritoneal macrophages. It counts as cell-based. The conditions noted are these: peritoneal macrophage cell.
Series [12] deals with Leishmania donovani. The experiment in a line: Antiprotozoal activity against […] form of Leishmania donovani infected in primary macrophages assessed as reduction in intracellular parasite level after 90 mins by Giemsa staining method. The conditions noted are these: 1.5 h. It is filed as functional, organism-based.
Series [13] relates to Trypanosoma cruzi. The experiment in a line: Antiprotozoal activity against trypomastigote form of Trypanosoma cruzi Colombian infected in BALB/c mouse assessed as decrease in parasitemia at 100 mg/kg, po administered for 1 week followed by weekly administration measured after 8 months. The conditions noted are these: 168 h.
The subject of series [14] is Trypanosoma cruzi. The experiment in a line: Trypanocidal activity against Trypanosoma cruzi.

Broadly, the IC50 is the concentration needed to halve the response being measured. As a reminder, the CC50 is the concentration that lowers cell viability or growth by half. For orientation: logP means the decadic logarithm of the partition coefficient of the neutral form, usually between octanol and water. A low value points to a more hydrophilic compound. Turning to `OC(c1ccccc1)c1c(C(F)(F)F)nc2ccc(Br)cc2c1Br` (stereo not given), the “Ratio CC50/IC50” value in series [1] was 0.19; in [2], 0.2; in [5] it was 0.19; in series [8] it was 0.25. Also, the IC50 was found to be 5940 nM in series [3], 8070 nM in [4], 8110 nM in [6] and 7520 nM in series [10]. Besides, the CC50 at 168 h in [7] was 1510 nM. Also, in series [9], the logP was 6.26.
`COc1nc2ccc(Br)cc2c2c1C(C)(OCC(O)CN)c1ccccc1-2` (stereo not given): the “Ratio CC50/IC50” value in series [1] was determined as 3.4; in series [2], 5.44; in [5] it was 2.89; in [8], 5.44. Further, the IC50 in series [3] came to 250 nM; in series [4], 470 nM; in series [6] it was 400 nM; in series [10], 250 nM. For the same molecule, the Activity entry in series [11] is “Non-toxic”. The CC50 at 168 h in series [7] was 1360 nM. Besides, in series [9], the logP worked out at 3.46.
As to `COc1ccccc1NC(=O)NCC(O)COC1(C)c2ccccc2-c2c1c(OC)nc1ccc(Br)cc21` (stereo not given), the “Ratio CC50/IC50” value in series [1] was determined as 0.56; in series [2] it was 0.64; in [5], 2.12; in series [8], 2.82. Further, the half-inhibitory concentration (IC50) in [3] was found to be 1880 nM; in series [4] it was 2500 nM; in series [6], 9510 nM; in series [10], 8230 nM. Also, the cytotoxic concentration (CC50) at 168 h in series [7] was 5310 nM. Besides, the logP in series [9] was 4.84.
Turning to `O=C1c2ccccc2-c2c1c(Nc1ccncc1)nc1ccc(Br)cc21`, the “Ratio CC50/IC50” value in series [1] is 0.15; in series [2] it was 1.34; in series [5], 3; in [8], 3. Besides, the IC50 was found to be 250 nM in [3], 250 nM in [4], 5080 nM in series [6] and 560 nM in series [10]. In addition, in series [11], the Activity result is given as “Non-toxic”. Moreover, the CC50 at 168 h in series [7] was 750 nM. Further, the logP in [9] was 4.64.
Turning to `COc1nc2ccc(Br)cc2cc1C(c1ccccc1)n1ccnc1` (stereo not given), the “Ratio CC50/IC50” value in [1] came out at 1.21; in [2] it was 0.943; in [5], 67.02; in series [8], 3.65. The IC50 in series [3] was 8430 nM; in [4], 460 nM; in [6] it was 25400 nM; in [10], 32700 nM. Also, the CC50 at 168 h in series [7] was found to be 30800 nM. This molecule registered a logP in [9] of 4.52.
In the case of `CC(O)c1cc(F)ccc1Oc1nc2ccc(NC(=O)Nc3cccc([N+](=O)[O-])c3)cc2cc1Cc1ccccc1` (stereo not given), the Ratio CC50/IC50 worked out at 1.29 in series [1], 4.31 in series [2], 2.15 in series [5] and 8.8 in [8]. The IC50 came to 250 nM in [3], 1000 nM in series [4], 1700 nM in [6] and 510 nM in [10]. Moreover, the Activity entry in [11] is “Non-toxic”. The CC50 at 168 h in series [7] stood at 2200 nM. The same molecule yielded a logP in series [9] of 6.84.
Turning to `COc1ccccc1NC(=O)Nc1ccc2nc(Oc3ccc(F)cc3C(C)O)c(Cc3ccccc3)cc2c1` (stereo not given), the Ratio CC50/IC50 in series [2] was found to be 9.55; in series [5], 2.16. Besides, the IC50 stood at 250 nM in series [3], 2890 nM in [4], 3170 nM in [6] and 650 nM in series [10]. Further, the Activity result in series [11] is listed as “Non-toxic”. The CC50 at 168 h in series [7] worked out at 6210 nM. Moreover, the logP in [9] came to 6.72.
In the case of `O=[N+]([O-])c1ccc2nc(Oc3ccc(F)cc3C(O)Cn3ccnc3)c(Cc3ccccc3)cc2c1` (stereo not given), the “Ratio CC50/IC50” value in series [1] stood at 12.47; in series [2], 14.42; in series [5], 125.76; in series [8], 17.37. For the same molecule, the IC50 is 1810 nM in series [3], 250 nM in series [4], 2520 nM in series [6] and 2180 nM in [10]. In addition, in series [11], the Activity result was “Non-toxic”. In series [7], the CC50 at 168 h was found to be 31400 nM.
On to `COc1ccc(NC(=S)Nc2ccc3nc(Oc4ccc(F)cc4C(C)O)c(Cc4ccccc4)cc3c2)cc1` (stereo not given), for which the “Ratio CC50/IC50” value in series [1] amounted to 7.89; in series [2], 31.37; in [5] it was 10.27; in series [8], 30.91. For the same molecule, the IC50 came out at 1310 nM in [3], 5810 nM in series [4], 8110 nM in series [6] and 2090 nM in series [10]. Also, in [7], the CC50 at 168 h stood at 42300 nM. Moreover, the logP in series [9] was determined as 7.86.
Regarding `COc1nc2ccc(Br)cc2c2c1C(C)(OCC(O)CN1CCN(Cc3ccccc3)CC1)c1ccccc1-2` (mixture of isomers), the “Ratio CC50/IC50” value in series [1] amounted to 0.59; in [2], 2.51; in series [5] it was 0.77; in series [8], 2.83. Besides, the IC50 stood at 1990 nM in series [3], 7250 nM in series [4], 9510 nM in series [6] and 2240 nM in series [10]. The CC50 at 168 h in series [7] was found to be 5630 nM. The log partition coefficient (logP) in series [9] is 5.85.
For `COc1nc2ccc(Br)cc2c2c1C(C)(OCC(O)CN1CCN(C(c3ccccc3)c3ccccc3)CC1)c1ccccc1-2` (mixture of isomers), the “Ratio CC50/IC50” value in series [1] is 2.16; in series [2] it was 8.6; in series [5], 3; in [8], 10.7. Also, the IC50 worked out at 1640 nM in series [3], 5850 nM in series [4], 8110 nM in series [6] and 2040 nM in [10]. In addition, in series [7], the CC50 at 168 h is 17600 nM. The logP in [9] was determined as 7.56.
With `C[C@@H]1[C@H](O)[C@@H](C)/C=C/C=C/C=C/C=C/C=C/C=C/C=C/[C@H](O[C@@H]2O[C@H](C)[C@@H](O)[C@H](N)[C@@H]2O)C[C@@H]2O[C@](O)(C[C@@H](O)C[C@@H](O)[C@H](O)CC[C@@H](O)C[C@@H](O)CC(=O)O[C@H]1C)C[C@H](O)[C@H]2C(=O)O` [AMPHOTERICIN B], in series [12], the IC50 was 250 nM.
With `O=C(Cn1ccnc1[N+](=O)[O-])NCc1ccccc1` [BENZNIDAZOLE], in series [13], the IC50 was 3660 nM.
In series [14], `CC1CS(=O)(=O)CCN1/N=C/c1ccc([N+](=O)[O-])o1` (stereo not given) [NIFURTIMOX] returned an IC50 of 1800 nM.
